In patent US20100003250A1, “(2-ARYL-7H-PYRROLO[2,3-D]PYRIMIDIN-4-YL)MORPHOLINE COMPOUNDS, THEIR USE AS MTOR KINASE AND PI3 KINASE INHIBITORS, AND THEIR SYNTHESES” (Wyeth, priority 2008, published 2010):

Assays:
Type in all cases: biochemical
PI3Kα = PI3Kα (Homo sapiens, UniProt P42336); experiment: PI3K-alpha fluorescence polarization assay; settings: 20 μM PIP2, 25 μM ATP; read-out: PI3Kα Median IC50
mTOR Kinase (FLAG-TOR) = target: T1, mTOR Kinase (FLAG-TOR) (Homo sapiens, UniProt P42345); experiment: mTOR kinase assay, purified enzyme, DELFIA format; settings: 100 μM ATP, 1.25 μM His6-S6K; read-out: mTOR Kinase Median IC50
T1 construct: FLAG

PI3Kγ = PI3Kγ (Homo sapiens, UniProt P48736); experiment: PI3K-gamma fluorescence polarization assay; settings: 20 μM PIP2, 25 μM ATP; read-out: PI3Kγ Median IC50
Description: PI3K-alpha and PI3K-gamma Fluorescence Polarization Assay Protocols
The reaction buffer was 20 mM HEPES pH 7.5, 2 mM MgCl2, 0.05% CHAPS, and 0.01% βME (added fresh). The substrate solution was 40 μM PIP2 (diC8, Echelon, Salt Lake City Utah cat # P-4508, 1 mM in water) and 50 μM ATP in the reaction buffer. Nunc 384-well black polypropylene fluorescent plates were used for PI3K assays. The assay is run by putting 9.5 μl of freshly diluted enzyme in the reaction buffer per well, adding 0.5 μl of diluted drug or DMSO, and mixing. Then 10 μl of the substrate solution is added to each well to start the reaction. A final concentration of 20 μM PIP2 and 25 μM ATP in the reaction was used. Reactions were allowed to proceed for 30-60 minutes at room temperature. After 30-60 minutes, 20 μl of a solution of 10 nM TAMRA detector (Red detector probe-Echelon) and 2.5 μM of GST-murineGRP (1.5 mg/ml in 17% glycerol) was added per well to stop the reaction. The resulting solution was mixed well and allowed to stand for 90-110 minutes before reading plate. Assay Plates were read on Perkin-Elmer Envision plate readers with appropriate filters for Tamra [BODIPY-TMRI(1,3,4,5)P4]. Data obtained were used to calculate enzymatic activity and enzyme inhibition by inhibitor compounds. It is important to keep Red probe solutions dark. This procedure is adapted from Echelon Biosciences Inc procedure for their PI3-Kinase fluorescence polarization activity Assay kit Product number K-1100.

Chain of PI3Kα (P42336 whole entry, species assumed): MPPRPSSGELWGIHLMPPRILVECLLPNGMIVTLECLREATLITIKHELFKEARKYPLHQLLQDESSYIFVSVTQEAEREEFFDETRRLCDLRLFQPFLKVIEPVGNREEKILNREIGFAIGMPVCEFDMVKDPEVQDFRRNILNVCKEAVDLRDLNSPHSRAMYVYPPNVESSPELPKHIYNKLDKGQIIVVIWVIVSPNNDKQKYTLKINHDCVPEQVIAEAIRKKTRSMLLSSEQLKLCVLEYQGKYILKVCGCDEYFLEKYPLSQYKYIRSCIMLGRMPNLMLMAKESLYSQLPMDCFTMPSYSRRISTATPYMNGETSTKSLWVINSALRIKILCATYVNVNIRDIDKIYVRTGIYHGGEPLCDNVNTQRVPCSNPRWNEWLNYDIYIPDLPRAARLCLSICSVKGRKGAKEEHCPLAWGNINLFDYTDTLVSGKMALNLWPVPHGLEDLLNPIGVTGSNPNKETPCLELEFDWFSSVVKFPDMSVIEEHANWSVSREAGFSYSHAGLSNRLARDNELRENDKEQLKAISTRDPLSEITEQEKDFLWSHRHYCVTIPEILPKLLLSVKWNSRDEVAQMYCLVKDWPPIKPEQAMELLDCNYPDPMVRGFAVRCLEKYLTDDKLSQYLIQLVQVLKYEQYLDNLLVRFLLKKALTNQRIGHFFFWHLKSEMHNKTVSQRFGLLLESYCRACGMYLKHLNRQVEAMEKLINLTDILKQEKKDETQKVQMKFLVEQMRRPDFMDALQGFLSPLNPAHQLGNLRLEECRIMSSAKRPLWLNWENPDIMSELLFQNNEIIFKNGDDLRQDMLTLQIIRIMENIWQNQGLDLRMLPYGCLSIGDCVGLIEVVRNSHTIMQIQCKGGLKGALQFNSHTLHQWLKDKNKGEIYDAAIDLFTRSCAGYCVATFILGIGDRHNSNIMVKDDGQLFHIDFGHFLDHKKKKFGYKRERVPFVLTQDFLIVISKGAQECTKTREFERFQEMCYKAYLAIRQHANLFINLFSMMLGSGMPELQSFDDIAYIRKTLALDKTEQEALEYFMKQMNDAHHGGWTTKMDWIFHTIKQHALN
Chain of PI3Kα (P27986 whole entry partner, species assumed): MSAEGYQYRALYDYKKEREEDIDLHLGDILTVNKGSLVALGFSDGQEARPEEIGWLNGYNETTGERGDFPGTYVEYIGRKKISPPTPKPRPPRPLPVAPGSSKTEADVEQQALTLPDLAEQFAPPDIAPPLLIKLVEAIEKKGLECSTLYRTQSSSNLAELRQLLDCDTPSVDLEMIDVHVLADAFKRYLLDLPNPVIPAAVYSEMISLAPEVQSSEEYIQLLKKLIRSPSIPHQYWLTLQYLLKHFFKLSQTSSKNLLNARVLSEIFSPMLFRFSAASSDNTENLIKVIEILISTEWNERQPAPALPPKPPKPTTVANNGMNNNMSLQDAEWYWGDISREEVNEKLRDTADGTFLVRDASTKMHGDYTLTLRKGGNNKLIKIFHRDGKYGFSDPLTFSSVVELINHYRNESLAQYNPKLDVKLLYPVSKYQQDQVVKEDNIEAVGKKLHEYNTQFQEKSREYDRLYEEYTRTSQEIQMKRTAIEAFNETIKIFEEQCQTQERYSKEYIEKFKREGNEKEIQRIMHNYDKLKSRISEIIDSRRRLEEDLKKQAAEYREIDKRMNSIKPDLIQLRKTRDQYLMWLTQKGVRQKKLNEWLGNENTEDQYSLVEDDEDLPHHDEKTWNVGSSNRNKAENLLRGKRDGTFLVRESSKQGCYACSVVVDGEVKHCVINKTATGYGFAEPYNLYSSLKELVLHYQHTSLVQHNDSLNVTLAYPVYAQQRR
Chain of PI3Kγ (P48736 whole entry, species assumed): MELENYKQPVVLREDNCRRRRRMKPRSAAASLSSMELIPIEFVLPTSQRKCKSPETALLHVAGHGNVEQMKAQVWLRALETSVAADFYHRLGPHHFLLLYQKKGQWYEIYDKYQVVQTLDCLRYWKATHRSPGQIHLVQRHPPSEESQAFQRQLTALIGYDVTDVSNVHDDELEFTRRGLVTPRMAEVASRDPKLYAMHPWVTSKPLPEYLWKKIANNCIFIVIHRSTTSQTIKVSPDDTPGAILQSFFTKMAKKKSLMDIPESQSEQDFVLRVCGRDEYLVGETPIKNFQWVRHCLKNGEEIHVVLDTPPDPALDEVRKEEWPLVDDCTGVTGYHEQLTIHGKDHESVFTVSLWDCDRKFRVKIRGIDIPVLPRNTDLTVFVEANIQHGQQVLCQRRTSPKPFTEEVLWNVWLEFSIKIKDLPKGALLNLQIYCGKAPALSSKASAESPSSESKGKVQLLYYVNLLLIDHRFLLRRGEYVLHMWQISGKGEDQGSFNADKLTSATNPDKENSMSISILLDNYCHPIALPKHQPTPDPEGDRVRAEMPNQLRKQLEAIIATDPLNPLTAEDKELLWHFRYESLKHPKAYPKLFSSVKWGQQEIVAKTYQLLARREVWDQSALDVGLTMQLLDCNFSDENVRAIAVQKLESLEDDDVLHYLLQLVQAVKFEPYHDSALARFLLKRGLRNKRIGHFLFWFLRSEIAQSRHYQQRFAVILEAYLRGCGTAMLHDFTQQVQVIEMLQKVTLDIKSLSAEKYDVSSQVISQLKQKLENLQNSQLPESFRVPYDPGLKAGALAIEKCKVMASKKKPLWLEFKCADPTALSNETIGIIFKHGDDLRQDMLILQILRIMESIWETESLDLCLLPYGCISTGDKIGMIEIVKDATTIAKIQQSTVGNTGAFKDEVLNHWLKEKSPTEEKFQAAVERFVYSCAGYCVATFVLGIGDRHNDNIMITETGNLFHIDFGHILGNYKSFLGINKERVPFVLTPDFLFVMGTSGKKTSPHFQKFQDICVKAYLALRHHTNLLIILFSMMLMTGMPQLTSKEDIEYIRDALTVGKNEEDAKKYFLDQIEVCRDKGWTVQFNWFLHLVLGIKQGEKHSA

| IC50 (PI3Kα) | IC50 (mTOR Kinase (FLAG-TOR)) | IC50 (PI3Kγ) | SMILES |
| --- | --- | --- | --- |
| 17 nM | 1.95 nM | 41 nM | CN1CCN(c2ccc(NC(=O)Nc3ccc(-c4nc(N5CCOCC5)c5ccn(CC(F)(F)F)c5n4)cc3)cc2)CC1 [Compound 39, 1-[4-(4-methylpiperazin-1-yl)phenyl]-3-{4-[4-morpholin-4-yl-7-(2,2,2-trifluoroethyl)-7H-pyrrolo[2,3-d]pyrimidin-2-yl]phenyl}urea] |
| 12 nM | 1.09 nM | 80 nM | O=C(Nc1ccc(CO)cc1)Nc1ccc(-c2nc(N3CCOCC3)c3ccn(CC(F)(F)F)c3n2)cc1 [Compound 40, 1-[4-(hydroxymethyl)phenyl]-3-{4-[4-morpholin-4-yl-7-(2,2,2-trifluoroethyl)-7H-pyrrolo[2,3-d]pyrimidin-2-yl]phenyl}urea] |
| 154 nM | 110 nM | 664 nM | CN(C)CCNC(=O)Nc1ccc(-c2nc(N3CCOCC3)c3ccn(CC(F)(F)F)c3n2)cc1 [Compound 41, 1-[2-(dimethylamino)ethyl]-3-{4-[4-morpholin-4-yl-7-(2,2,2-trifluoroethyl)-7H-pyrrolo[2,3-d]pyrimidin-2-yl]phenyl}urea] |
| 110 nM | 0.94 nM | 390 nM | O=C(NCCO)Nc1ccc(-c2nc(N3CCOCC3)c3ccn(CC(F)(F)F)c3n2)cc1 [Compound 42, 1-(2-hydroxyethyl)-3-{4-[4-morpholin-4-yl-7-(2,2,2-trifluoroethyl)-7H-pyrrolo[2,3-d]pyrimidin-2-yl]phenyl}urea] |
| 570 nM | 3.9 nM | 1720 nM | O=C(Nc1ccc(-c2nc(N3CCOCC3)c3ccn(CC(F)(F)F)c3n2)cc1)OCCO [Compound 43, 2-hydroxyethyl{4-[4-morpholin-4-yl-7-(2,2,2-trifluoroethyl)-7H-pyrrolo[2,3-d]pyrimidin-2-yl]phenyl}carbamate] |
| 26 nM | 1.9 nM | 144 nM | Cn1ccc2c(N3CCOCC3)nc(-c3ccc(NC(=O)Nc4cccnc4)cc3)nc21 [Compound 44, 1-[4-(7-methyl-4-morpholin-4-yl-7H-pyrrolo[2,3-d]pyrimidin-2-yl)phenyl]-3-pyridin-3-ylurea] |
| 45 nM | 36.5 nM | 506 nM | Nc1nc2cc(-c3nc(N4CCOCC4)c4ccn(CC(F)(F)F)c4n3)ccc2[nH]1 [Compound 45, 5-[4-morpholin-4-yl-7-(2,2,2-trifluoroethyl)-7H-pyrrolo[2,3-d]pyrimidin-2-yl]-1H-benzimidazol-2-amine] |
| 14 nM | 3.4 nM | 104 nM | O=C(Nc1cccnc1)Nc1nc2cc(-c3nc(N4CCOCC4)c4ccn(CC(F)(F)F)c4n3)ccc2[nH]1 [Compound 46, 1-{5-[4-morpholin-4-yl-7-(2,2,2-trifluoroethyl)-7H-pyrrolo[2,3-d]pyrimidin-2-yl]-1H-benzimidazol-2-yl}-3-pyridin-3-ylurea] |
| 1080 nM | 300 nM | 5230 nM | O=C(Nc1nc2cc(-c3nc(N4CCOCC4)c4ccn(CC(F)(F)F)c4n3)ccc2[nH]1)c1ccncc1 [Compound 47, N-{5-[4-morpholin-4-yl-7-(2,2,2-trifluoroethyl)-7H-pyrrolo[2,3-d]pyrimidin-2-yl]-1H-benzimidazol-2-yl}isonicotinamide] |
| 1200 nM | 340 nM | 3660 nM | CNc1nc2cc(-c3nc(N4CCOCC4)c4ccn(CC(F)(F)F)c4n3)ccc2[nH]1 [Compound 48, N-methyl-5-[4-morpholin-4-yl-7-(2,2,2-trifluoroethyl)-7H-pyrrolo[2,3-d]pyrimidin-2-yl]-1H-benzimidazol-2-amine] |
| 1840 nM | 1450 nM | 210 nM | CCOC(=O)Nc1nc2cc(-c3nc(N4CCOCC4)c4ccn(CC(F)(F)F)c4n3)ccc2[nH]1 [Compound 49, ethyl {5-[4-morpholin-4-yl-7-(2,2,2-trifluoroethyl)-7H-pyrrolo[2,3-d]pyrimidin-2-yl]-1H-benzimidazol-2-yl}carbamate] |
| 8710 nM | 4.9 nM | > 10000 nM | COC(=O)c1ccc(NC(=O)Nc2ccc(-c3nc(N4CCOCC4)c4ccn(CC(F)(F)F)c4n3)cc2)cc1 [Compound 50, methyl 4-[({4-[4-morpholin-4-yl-7-(2,2,2-trifluoroethyl)-7H-pyrrolo[2,3-d]pyrimidin-2-yl]phenyl}carbamoyl)amino]benzoate] |
| 1.1 nM | 0.3 nM | 24 nM | CN(C)CCNC(=O)c1ccc(NC(=O)Nc2ccc(-c3nc(N4CCOCC4)c4ccn(CC(F)(F)F)c4n3)cc2)cc1 [Compound 52, N-[2-(dimethylamino)ethyl]-4-[({4-[4-morpholin-4-yl-7-(2,2,2-trifluoroethyl)-7H-pyrrolo[2,3-d]pyrimidin-2-yl]phenyl}carbamoyl)amino]benzamide] |
| < 2.1 nM | 0.57 nM | 16 nM | CNCCN(C)C(=O)c1ccc(NC(=O)Nc2ccc(-c3nc(N4CCOCC4)c4ccn(CC(F)(F)F)c4n3)cc2)cc1 [Compound 53, N-methyl-N-[2-(methylamino)ethyl]-4-[({4-[4-morpholin-4-yl-7-(2,2,2-trifluoroethyl)-7H-pyrrolo[2,3-d]pyrimidin-2-yl]phenyl}carbamoyl)amino]benzamide] |
| 1.9 nM | 1.1 nM | 16 nM | CN1CCN(C(=O)c2ccc(NC(=O)Nc3ccc(-c4nc(N5CCOCC5)c5ccn(CC(F)(F)F)c5n4)cc3)cc2)CC1 [Compound 54, 1-{4-[(4-methylpiperazin-1-yl)carbonyl]phenyl}-3-{4-[4-morpholin-4-yl-7-(2,2,2-trifluoroethyl)-7H-pyrrolo[2,3-d]pyrimidin-2-yl]phenyl}urea] |
| < 1.9 nM | 0.94 nM | 15 nM | CC1(C)CN(C(=O)c2ccc(NC(=O)Nc3ccc(-c4nc(N5CCOCC5)c5ccn(CC(F)(F)F)c5n4)cc3)cc2)CCN1 [Compound 55, 1-{4-[(3,3-dimethylpiperazin-1-yl)carbonyl]phenyl}-3-{4-[4-morpholin-4-yl-7-(2,2,2-trifluoroethyl)-7H-pyrrolo[2,3-d]pyrimidin-2-yl]phenyl}urea] |
| 2.6 nM | 0.53 nM | 40 nM | O=C(Nc1ccc(C(=O)NCCN2CCCCC2)cc1)Nc1ccc(-c2nc(N3CCOCC3)c3ccn(CC(F)(F)F)c3n2)cc1 [Compound 56, 4-[({4-[4-morpholin-4-yl-7-(2,2,2-trifluoroethyl)-7H-pyrrolo[2,3-d]pyrimidin-2-yl]phenyl}carbamoyl)amino]-N-(2-piperidin-1-ylethyl)benzamide] |
| 2 nM | 4.5 nM | 11 nM | CN(C)CCOc1ccc(NC(=O)Nc2ccc(-c3nc(N4CCOCC4)c4ccn(CC(F)(F)F)c4n3)cc2)cc1 [Compound 58, 1-{4-[2-(dimethylamino)ethoxy]phenyl}-3-{4-[4-morpholin-4-yl-7-(2,2,2-trifluoroethyl)-7H-pyrrolo[2,3-d]pyrimidin-2-yl]phenyl}urea] |
| 166 nM | 4.7 nM | 562 nM | CCn1ccc2c(N3CCOCC3)nc(-c3ccc(NC(=O)Nc4ccc(C(=O)OC)cc4)cc3)nc21 [Compound 59, methyl 4-({[4-(7-ethyl-4-morpholin-4-yl-7H-pyrrolo[2,3-d]pyrimidin-2-yl)phenyl]carbamoyl}amino)benzoate] |
| 14.5 nM | 0.86 nM | 120 nM | CCn1ccc2c(N3CCOCC3)nc(-c3ccc(NC(=O)Nc4ccc(C(=O)O)cc4)cc3)nc21 [Compound 60, 4-({[4-(7-ethyl-4-morpholin-4-yl-7H-pyrrolo[2,3-d]pyrimidin-2-yl)phenyl]carbamoyl}amino)benzoic acid] |
| < 1.9 nM | 0.43 nM | 20 nM | CCn1ccc2c(N3CCOCC3)nc(-c3ccc(NC(=O)Nc4ccc(C(=O)N(C)CCN(C)C)cc4)cc3)nc21 [Compound 61, N-[2-(dimethylamino)ethyl]-4-({[4-(7-ethyl-4-morpholin-4-yl-7H-pyrrolo[2,3-d]pyrimidin-2-yl)phenyl]carbamoyl}amino)-N-methylbenzamide] |
| < 2.4 nM | 0.56 nM | 25 nM | CCn1ccc2c(N3CCOCC3)nc(-c3ccc(NC(=O)Nc4ccc(C(=O)NCCN(C)C)cc4)cc3)nc21 [Compound 62, N-[2-(dimethylamino)ethyl]-4-({[4-(7-ethyl-4-morpholin-4-yl-7H-pyrrolo[2,3-d]pyrimidin-2-yl)phenyl]carbamoyl}amino)benzamide] |
| 1.4 nM | 1.75 nM | 19 nM | CCn1ccc2c(N3CCOCC3)nc(-c3ccc(NC(=O)Nc4ccc(C(=O)N5CCN(C)CC5)cc4)cc3)nc21 [Compound 63, 1-[4-(7-ethyl-4-morpholin-4-yl-7H-pyrrolo[2,3-d]pyrimidin-2-yl)phenyl]-3-{4-[(4-methylpiperazin-1-yl)carbonyl]phenyl}urea] |
